Source: patent publication US4892963A, “N-phenyl amide compounds” (Lilly Industries Limited, priority 1986, dated 1990)

Legend:
rat spleen cells = test: concanavalin A response of rat spleen cells (tritiated thymidine uptake); assay type: cell-based; details: dosage level of 10 micromolar, concanavalin A 3 μg/ml, 2×10^5 cells per well
Description: The concanavalin A response of rat spleen cells was used as a primary in vitro assay to determine the activity of the compounds of the invention. Many methods for the determination of concanavalin A response are described in the literature. The method employed was similar to that described by Lacombe P. et al, FEBS 3048 191, 227-230. This method was altered insofar as Hepes was excluded, 2×10^5 cells were used per culture well, and concanavalin A employed at 3 μg/ml. 2-Mercaptoethanol was a requirement (2×10M^-5 ) and 0.1 μCi of tritiated thymidine was added 4 hours before cell harvesting.

cyclooxygenase = cyclooxygenase inhibition test of Harvey and Osborn
From the text: Other members of the series inhibit 5-lipoxygenase product formation as measured in this test, and are thus indicated for the therapeutic treatment of diseases in which leukotrienes are implicated. These include immediate hypersensitivity diseases, allergic reactions of the pulmonary system, for example, in lung disorders such as extrinsic asthma and industrial asthmas and in other inflammatory disorders associated with acute or chronic infectious diseases as allergic skin diseases, ectopic and atopic eczemas, psoriasis, contact hypersensitivity and angioneurotic oedema, bronchitis, cystic fibrosis and rheumatic fever. Furthermore, owing to their inhibition of leukotriene formation, the compounds have potential activity against a wide range of inflammatory diseases, and are also indicated for use in cancer treatment.

With `CCC(C)(C)c1ccc(NC(=O)C(C#N)=C(C)O)cc1` [Example 4, 2-Cyano-N-[4-(1,1-dimethylpropyl)phenyl]-3-hydroxybut-2-enamide] the inhibition at 10 µM (rat spleen cells) was > 50%.

`CC(O)=C(C#N)C(=O)Nc1ccc(C(C)(C)C)cc1` [Example 1, 2-Cyano-N-[4-(1,1-dimethylethyl)phenyl]-3-hydroxybut-2-enamide] was tested, and the cyclooxygenase inhibiting properties (cyclooxygenase) was “little or no cyclooxygenase inhibiting properties” and the inhibition at 10 µM (rat spleen cells) was > 50%.

In the case of `CC(O)=C(C#N)C(=O)N(C)c1ccc(C(C)(C)C)cc1` [Example 2, 2-Cyano-N-[4-(1,1-dimethylethyl)phenyl]-3-hydroxy-N-methylbut-2-enamide], the cyclooxygenase inhibiting properties (cyclooxygenase) is reported as “little or no cyclooxygenase inhibiting properties”.

`Cc1oncc1C(=O)Nc1ccc(C(C)(C)C)cc1` [Example 3, N-[4-(1,1-Dimethylethyl)phenyl]-5-methylisoxazol-4-yl-carboxamide] was tested, and the inhibition at 10 µM (rat spleen cells) was > 50%.
